Laboratory results published in US11000033B2, “Ketone or oxime compound, and herbicide” (NISSAN CHEMICAL CORPORATION, priority 2014, dated 2021).

Tests used:
Assay type in all cases: in vivo
transplanted rice plant = assay: Test Example 1: effect on crop, application before weed generation in submerged conditions (symbol a); details: application herbicide amount 320 g/ha
In short: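 Alluvial soil pots flooded to 4 cm water, sown with Echinochloa oryzacola, Scirpus juncoides and Monochoria vaginalis, then transplanted with 2.5 leaf stage rice seedlings; pre-emergence application. Greenhouse 25° C. to 30° C.; scored 0–5 by herbicidal ratio 3 weeks after application.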

[1] = system: Echinochloa crus-galli var. crus-galli; assay: Test Example 5: herbicidal effect by foliage application, plastic box (symbol H); details: 320 g/ha, 3 weeks after application
In short: (§1)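 After sowing into sterilized diluvial soil and growing two weeks under glass at 25° C. to 30° C., seedlings receive a uniform foliar spray of diluted emulsion. Damage is judged visually three weeks on.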

Scirpus juncoides [2] = assay: Test Example 2: herbicidal activity, application during weed generation in submerged conditions (symbol B); details: Table 23; application herbicide amount 320 g/ha; grade 0-5 by criteria of Test Example 1
In short: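 Alluvial soil in pots was flooded to a 4 cm water depth and sown with a mix of the three weed species, then grown in a greenhouse at 25° C. to 30° C. At the one- to two-leaf stage, an emulsifiable formulation diluted in water to a set dose was applied to the water surface. Effects were scored visually 3 weeks later.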

Scirpus juncoides [3] = assay: Test Example 1: herbicidal activity, application before weed generation in submerged conditions (symbol B); details: application herbicide amount 320 g/ha
In short: (§2)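 Paddy pre-emergence test. Formulated emulsion, water-diluted to a predetermined rate, is applied to floodwater on sowing day; rice transplanted at 2.5 leaves. Effect read at 3 weeks on a 0–5 herbicidal-ratio scale.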

Chenopodium album = assay: Test Example 5: herbicidal effect by foliage application, plastic box (symbol O); details: 320 g/ha, 3 weeks after application
In short: as §1

Leptochloa chinensis = assay: Test Example 3: herbicidal effect by foliage application, Wagner pot (symbol D); details: application herbicide amount 320 g/ha
In short: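 Weeds and rice were sown in alluvial soil under 0.1–0.5 cm of standing water and grown for 14 days in a 25–30 °C greenhouse. An emulsion of the compound, diluted in water to a set dose, was sprayed evenly onto the foliage. Effect was scored against fixed criteria 3 weeks after treatment.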

rapeseed = assay: Test Example 5: effect on crop by foliage application, plastic box (symbol g); details: 320 g/ha, 3 weeks after application
In short: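 Seeds were sown in spots in sterilized diluvial soil held in a plastic box 21 cm × 13 cm × 7 cm deep, covered with about 1.5 cm of soil, and grown in a greenhouse at 25° C. to 30° C.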

soybean = assay: Test Example 4: effect on crop by soil treatment (symbol d)
In short: (§3)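 The test used sterilized diluvial soil. Seed was set down in spots and overlaid with about 1.5 cm of soil before growth in a greenhouse kept at 25° C. to 30° C.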

beet = assay: Test Example 4: effect on crop by soil treatment (symbol f)
In short: as §3

Monochoria vaginalis = assay: Test Example 1: herbicidal activity, application before weed generation in submerged conditions (symbol C); details: application herbicide amount 320 g/ha
In short: as §2

[4] = application herbicide amount 320 g/ha

Row | Structure (SMILES) | Effect grade on crop, a: transplanted rice plant (transplanted rice plant) | H: Echinochloa crus-galli var. crus-galli, herbicidal effect grade [1] | Herbicidal effect grade, B: Scirpus juncoides (Scirpus juncoides [2]) | Herbicidal effect grade, B: Scirpus juncoides (Scirpus juncoides [3]) | O: Chenopodium album, herbicidal effect grade (Chenopodium album) | herbicidal effect on D (Leptochloa chinensis), grade 0-5 (Leptochloa chinensis) | g: rapeseed, effect on crop grade (rapeseed) | d (soybean) effect on crop grade (soybean; [4]) | f (beet) effect on crop grade (beet; [4]) | Herbicidal effect grade, C: Monochoria vaginalis (Monochoria vaginalis) | H: Echinochloa crus-galli var. crus-galli, herbicidal effect (criteria 0-5) [1] | O: Chenopodium album, herbicidal effect (criteria 0-5) (Chenopodium album) | g: rapeseed, effect on crop (criteria 0-5) (rapeseed) | d: soybean, effect grade on crop (soybean; 320 g/ha) | f: beet, effect grade on crop (beet; 320 g/ha) | D (Leptochloa chinensis) herbicidal effect grade (Leptochloa chinensis; Table 24) | Effect on crop grade, d: soybean (soybean; [4]) | Effect on crop grade, f: beet (beet; [4])
1 | CC(CC1CC(O)=C(c2c(C)cc(C)cc2C)C1=O)=NO (centres unmarked) [1-058] | 5 (Herbicidal ratio of 90% or more (almost completely withered)) | 5 (Herbicidal ratio of 90% or more (almost completely withered)) | 0 (Herbicidal ratio of 5% or lower (almost no effect)) | 0 (Herbicidal ratio of 5% or lower (almost no effect)) | 0 (Herbicidal ratio of 5% or lower (almost no effect)) | 5 (Herbicidal ratio of 90% or more (almost completely withered)) | 4 (Herbicidal ratio of 70% or higher and lower than 90%) | 0 (Herbicidal ratio of 5% or lower (almost no effect)) | 0 (Herbicidal ratio of 5% or lower (almost no effect)) | 0 (Herbicidal ratio of 5% or lower (almost no effect)) | – | – | – | – | – | – | – | –
2 | CON=C(C)CC1CC(OC(=O)COc2ccc(C(C)=O)cc2)=C(c2c(C)cc(C)cc2C)C1=O (centres unmarked) [1-080] | 5 (Herbicidal ratio of 90% or more (almost completely withered)) | – | 4 (Herbicidal ratio of 70% or higher and lower than 90%) | 5 (Herbicidal ratio of 90% or more (almost completely withered)) | – | 5 (Herbicidal ratio of 90% or more (almost completely withered)) | – | – | – | 3 (Herbicidal ratio of 40% or higher and lower than 70%) | 5 (Herbicidal ratio of 90% or more (almost completely withered)) | 3 (Herbicidal ratio of 40% or higher and lower than 70%) | 4 (Herbicidal ratio of 70% or higher and lower than 90%) | 1 (Herbicidal ratio of 5% or higher and lower than 20%) | 0 (Herbicidal ratio of 5% or lower (almost no effect)) | – | – | –
3 | CON=C(C)CC1CC(OC(=O)COc2cccc(C#N)c2)=C(c2c(C)cc(C)cc2C)C1=O (centres unmarked) [1-074] | 5 (Herbicidal ratio of 90% or more (almost completely withered)) | – | 4 (Herbicidal ratio of 70% or higher and lower than 90%) | 5 (Herbicidal ratio of 90% or more (almost completely withered)) | – | 5 (Herbicidal ratio of 90% or more (almost completely withered)) | – | 0 (Herbicidal ratio of 5% or lower (almost no effect)) | 0 (Herbicidal ratio of 5% or lower (almost no effect)) | 4 (Herbicidal ratio of 70% or higher and lower than 90%) | 5 (Herbicidal ratio of 90% or more (almost completely withered)) | 2 (Herbicidal ratio of 20% or higher and lower than 40%) | 4 (Herbicidal ratio of 70% or higher and lower than 90%) | – | – | – | – | –
4 | CON=C(CC1CC(O)=C(c2c(C)cc(C#C[Si](C)(C)C)cc2C)C1=O)C(C)C (centres unmarked) [9-005] | 4 (Herbicidal ratio of 70% or higher and lower than 90%) | 5 (Herbicidal ratio of 90% or more (almost completely withered)) | 0 (Herbicidal ratio of 5% or lower (almost no effect)) | 0 (Herbicidal ratio of 5% or lower (almost no effect)) | 0 (Herbicidal ratio of 5% or lower (almost no effect)) | – | 3 (Herbicidal ratio of 40% or higher and lower than 70%) | – | – | 0 (Herbicidal ratio of 5% or lower (almost no effect)) | – | – | – | – | – | 5 (Herbicidal ratio of 90% or more (almost completely withered)) | 0 (Herbicidal ratio of 5% or lower (almost no effect)) | 0 (Herbicidal ratio of 5% or lower (almost no effect))
5 | CON=C(C)CC1CC(OC(=O)C(C)Oc2ccccc2)=C(c2c(C)cc(C)cc2C)C1=O (centres unmarked) [1-060] | 5 (Herbicidal ratio of 90% or more (almost completely withered)) | 5 (Herbicidal ratio of 90% or more (almost completely withered)) | 4 (Herbicidal ratio of 70% or higher and lower than 90%) | 4 (Herbicidal ratio of 70% or higher and lower than 90%) | 3 (Herbicidal ratio of 40% or higher and lower than 70%) | 5 (Herbicidal ratio of 90% or more (almost completely withered)) | 4 (Herbicidal ratio of 70% or higher and lower than 90%) | 0 (Herbicidal ratio of 5% or lower (almost no effect)) | 0 (Herbicidal ratio of 5% or lower (almost no effect)) | 3 (Herbicidal ratio of 40% or higher and lower than 70%) | – | – | – | – | – | – | – | –
6 | CC(CC1CC(O)=C(c2c(C)cc(C)cc2C)C1=O)=NOCC(=O)N1CCOCC1 (centres unmarked) [1-025] | 3 (Herbicidal ratio of 40% or higher and lower than 70%) | 4 (Herbicidal ratio of 70% or higher and lower than 90%) | 0 (Herbicidal ratio of 5% or lower (almost no effect)) | 2 (Herbicidal ratio of 20% or higher and lower than 40%) | 4 (Herbicidal ratio of 70% or higher and lower than 90%) | 5 (Herbicidal ratio of 90% or more (almost completely withered)) | 4 (Herbicidal ratio of 70% or higher and lower than 90%) | 0 (Herbicidal ratio of 5% or lower (almost no effect)) | 0 (Herbicidal ratio of 5% or lower (almost no effect)) | 0 (Herbicidal ratio of 5% or lower (almost no effect)) | – | – | – | – | – | – | – | –
7 | CON=C(CC1CC(O)=C(c2c(C)cc(C)cc2C)C1=O)C(C)(C)C (centres unmarked) [1-059] | 4 (Herbicidal ratio of 70% or higher and lower than 90%) | 4 (Herbicidal ratio of 70% or higher and lower than 90%) | 0 (Herbicidal ratio of 5% or lower (almost no effect)) | 3 (Herbicidal ratio of 40% or higher and lower than 70%) | 0 (Herbicidal ratio of 5% or lower (almost no effect)) | 1 (Herbicidal ratio of 5% or higher and lower than 20%) | 3 (Herbicidal ratio of 40% or higher and lower than 70%) | 0 (Herbicidal ratio of 5% or lower (almost no effect)) | 0 (Herbicidal ratio of 5% or lower (almost no effect)) | 2 (Herbicidal ratio of 20% or higher and lower than 40%) | – | – | – | – | – | – | – | –
8 | CCCCCCCON=C(C)CC1CC(O)=C(c2c(C)cc(C)cc2C)C1=O (centres unmarked) [1-054] | 5 (Herbicidal ratio of 90% or more (almost completely withered)) | 4 (Herbicidal ratio of 70% or higher and lower than 90%) | 0 (Herbicidal ratio of 5% or lower (almost no effect)) | 0 (Herbicidal ratio of 5% or lower (almost no effect)) | 0 (Herbicidal ratio of 5% or lower (almost no effect)) | 3 (Herbicidal ratio of 40% or higher and lower than 70%) | 3 (Herbicidal ratio of 40% or higher and lower than 70%) | 0 (Herbicidal ratio of 5% or lower (almost no effect)) | 0 (Herbicidal ratio of 5% or lower (almost no effect)) | 0 (Herbicidal ratio of 5% or lower (almost no effect)) | – | – | – | – | – | – | – | –
